Laboratory results: ChEMBL document CHEMBL1201862, “PubChem BioAssay data set” (2004)
Values joined by “and” are separate entries in the source; they are usually repeats but may differ in a detail not shown here. Identical values can stand only once.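 Protocol summary: plate cells (96-well), add compound at 5 concentrations, incubate 48 h, interpolate endpoints linearly. Here, GI50 denotes the concentration required for 50% inhibition of growth.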 Active and inactive are the calls of the source. No stated cut-off is given here; in the data, active = GI50 up to about 1.1 µM and inactive = higher.

Experiments:
Assay in all cases: NCI-60 cell line screen, 48 h
SW-620 = tested on: SW-620
NCI-H226 = tested on: NCI-H226
HCC 2998 = tested on: HCC 2998
SNB-75 = tested on: SNB-75
RPMI-8226 = tested on: RPMI-8226
OVCAR-4 = tested on: OVCAR-4
UACC-62 = tested on: UACC-62
NCI-H460 = tested on: NCI-H460
COLO 205 = tested on: COLO 205
NCI-H522 = tested on: NCI-H522
HOP-62 = tested on: HOP-62
786-0 = tested on: 786-0
SF-295 = tested on: SF-295
MDA-N = tested on: MDA-N
NCI-H23 = tested on: NCI-H23
DU-145 = tested on: DU-145
SK-MEL-5 = tested on: SK-MEL-5
HOP-92 = tested on: HOP-92
SK-OV-3 = tested on: SK-OV-3
MOLT-4 = tested on: MOLT-4

Measured: GI50

CCC1NC(=O)C(NC(=O)c2ncccc2O)C(C)OC(=O)C(c2ccccc2)NC(=O)C2CC(=O)CCN2C(=O)C(Cc2ccccc2)N(C)C(=O)C2CCCN2C1=O (stereo not given)
inactive: SW-620 > 100 µM | NCI-H226 > 100 µM | HCC 2998 > 100 µM | SNB-75 > 100 µM | RPMI-8226 > 100 µM | OVCAR-4 57.1 µM | UACC-62 > 100 µM | NCI-H460 > 100 µM | COLO 205 > 100 µM | NCI-H522 > 100 µM | HOP-62 > 100 µM | 786-0 > 100 µM | SF-295 > 100 µM | MDA-N > 100 µM | NCI-H23 > 100 µM | DU-145 > 100 µM | SK-MEL-5 > 100 µM | HOP-92 > 100 µM | SK-OV-3 > 100 µM

O=c1cc(O)c2c(O)cc(O)cc2o1
inactive: SW-620 > 100 µM | NCI-H226 > 100 µM | HCC 2998 > 100 µM | SNB-75 > 100 µM | RPMI-8226 > 100 µM | OVCAR-4 > 100 µM | UACC-62 > 100 µM | NCI-H460 > 100 µM | COLO 205 > 100 µM | NCI-H522 > 100 µM | HOP-62 > 100 µM | 786-0 > 100 µM | SF-295 > 100 µM | MDA-N > 100 µM | NCI-H23 > 100 µM | DU-145 > 100 µM | SK-MEL-5 > 100 µM | HOP-92 > 100 µM | MOLT-4 > 100 µM

COC1CC(OC2C(C)OC(OC3C(C)OC(OC4C(C)OC(O[C@H]5CC[C@@]6(C)C(=CC[C@]7(O)[C@@H]6C[C@@H](OC(=O)/C=C(\C)C(C)C)[C@@]6(C)[C@]7(O)CC[C@@]6(O)C(C)=O)C5)CC4OC)CC3OC)CC2OC)OC(C)C1O (stereo not given in full)
inactive: SW-620 > 12.5 µM | NCI-H226 > 12.5 µM | HCC 2998 > 12.5 µM | SNB-75 > 12.5 µM | RPMI-8226 4.02 µM | OVCAR-4 > 12.5 µM | UACC-62 > 12.5 µM | COLO 205 > 12.5 µM | NCI-H522 > 12.5 µM | HOP-62 > 12.5 µM | 786-0 > 12.5 µM | SF-295 > 12.5 µM | MDA-N > 12.5 µM | NCI-H23 > 12.5 µM | DU-145 > 12.5 µM | SK-MEL-5 11.2 µM | HOP-92 > 12.5 µM | MOLT-4 > 12.5 µM | SK-OV-3 > 12.5 µM

CN1CC[N+](C)=C1c1ccccc1
inactive: SW-620 > 100 µM | NCI-H226 > 100 µM | HCC 2998 > 100 µM | SNB-75 > 100 µM | RPMI-8226 > 100 µM | OVCAR-4 > 100 µM | NCI-H460 > 100 µM | COLO 205 > 100 µM | NCI-H522 > 100 µM | HOP-62 > 100 µM | 786-0 > 100 µM | SF-295 > 100 µM | MDA-N > 100 µM | NCI-H23 > 100 µM | DU-145 > 100 µM | SK-MEL-5 > 100 µM | HOP-92 > 100 µM | MOLT-4 > 100 µM | SK-OV-3 > 100 µM

CC(=O)OCC1OC(N2C(C)=C(C(C)=O)C(c3ccco3)C(C#N)=C2S)C(OC(C)=O)C(OC(C)=O)C1OC(C)=O (stereo not given)
inactive: SW-620 > 100 µM | NCI-H226 > 100 µM | HCC 2998 > 100 µM | SNB-75 > 100 µM | RPMI-8226 > 100 µM | OVCAR-4 > 100 µM | UACC-62 > 100 µM | NCI-H460 > 100 µM | COLO 205 > 100 µM | NCI-H522 > 100 µM | HOP-62 > 100 µM | 786-0 > 100 µM | SF-295 > 100 µM | MDA-N > 100 µM | NCI-H23 > 100 µM | DU-145 > 100 µM | SK-MEL-5 > 100 µM | HOP-92 > 100 µM | MOLT-4 > 100 µM

CC(=O)Nc1cc2cc(N)ccc2oc1=O
inactive: SW-620 > 100 µM | NCI-H226 > 100 µM | HCC 2998 > 100 µM | RPMI-8226 > 100 µM | OVCAR-4 > 100 µM | NCI-H460 > 100 µM | COLO 205 > 100 µM | NCI-H522 > 100 µM | HOP-62 > 100 µM | 786-0 > 100 µM | SF-295 > 100 µM | MDA-N > 100 µM | NCI-H23 > 100 µM | DU-145 > 100 µM | SK-MEL-5 > 100 µM | HOP-92 > 100 µM | MOLT-4 > 100 µM

CCOC(=O)c1nc2cc(F)cc(F)c2[nH]c1=O
inactive: SW-620 > 100 µM | NCI-H226 > 100 µM | HCC 2998 > 100 µM | SNB-75 > 100 µM | RPMI-8226 > 100 µM | OVCAR-4 > 100 µM | UACC-62 > 100 µM | NCI-H460 > 100 µM | COLO 205 > 100 µM | HOP-62 > 100 µM | 786-0 > 100 µM | SF-295 > 100 µM | MDA-N > 100 µM | NCI-H23 > 100 µM | DU-145 > 100 µM | SK-MEL-5 > 100 µM | HOP-92 > 100 µM | MOLT-4 > 100 µM | SK-OV-3 > 100 µM

CC(=O)OC1COC(n2c(N)c(C#N)c(-c3ccccc3)c(C#N)c2=S)C(OC(C)=O)C1OC(C)=O (stereo not given)
inactive: SW-620 56.2 µM and 64.3 µM | HCC 2998 25.6 µM and 27.4 µM | SNB-75 43.4 µM and 24.4 µM | RPMI-8226 24.5 µM and 28.6 µM | OVCAR-4 41 µM and 38.7 µM | UACC-62 33 µM and 35.1 µM | NCI-H460 46.8 µM and 65.9 µM | COLO 205 31.6 µM and 31.3 µM | NCI-H522 38.5 µM and 40.8 µM | HOP-62 > 100 µM | 786-0 36.9 µM and 39.3 µM | SF-295 > 100 µM | MDA-N 26.6 µM and 27.8 µM | DU-145 47.9 µM and 38.4 µM | SK-MEL-5 37.9 µM and 30.3 µM | HOP-92 19.8 µM and 14.8 µM | MOLT-4 24.6 µM and 24.3 µM | SK-OV-3 38.3 µM and 45 µM

CCO/C=N\C1=C(C#N)SC2=N/C(=C\c3ccc(OC)cc3)C(=O)N21
inactive: SW-620 > 100 µM | NCI-H226 > 100 µM | HCC 2998 39.5 µM | SNB-75 19.2 µM | RPMI-8226 > 100 µM | OVCAR-4 15.4 µM | COLO 205 > 100 µM | NCI-H522 79.8 µM | 786-0 40.6 µM | SF-295 59.3 µM | MDA-N > 100 µM | NCI-H23 > 100 µM | DU-145 > 100 µM | SK-MEL-5 > 100 µM | HOP-92 > 100 µM | MOLT-4 > 100 µM | SK-OV-3 96.8 µM

CC(=O)Nc1ccc(C(=O)NN2C(=O)CSC2c2ccc(O)cc2)cc1 (stereo not given)
inactive: SW-620 > 100 µM | NCI-H226 > 100 µM | HCC 2998 > 100 µM | SNB-75 91.6 µM | RPMI-8226 > 100 µM | OVCAR-4 > 100 µM | UACC-62 > 100 µM | NCI-H460 > 100 µM | COLO 205 > 100 µM | HOP-62 > 100 µM | 786-0 > 100 µM | SF-295 > 100 µM | MDA-N > 100 µM | NCI-H23 > 100 µM | DU-145 > 100 µM | SK-MEL-5 > 100 µM | HOP-92 > 100 µM | MOLT-4 > 100 µM | SK-OV-3 > 100 µM
